From patent publication US6706740B2, “Fungicidal heterocyclic aromatic amides and their compositions, methods of use and preparation” (Dow AgroSciences LLC, priority 1999, dated 2004) come the findings set out here.

Read-outs that look alike come from different tables or passages of the source.

In test [1] the test system is Magnaporthe grisea (Pyricularia oryzae—PYRIOR). The experiment in a line: microbe, parasite or virus in culture. The class given is cell-based. To be noted: Pyricularia oryzae, read-out: PYRIOR in vitro Growth Inhibition.
Test [2] relates to Rhizoctonia solani (RHIZSO). Put plainly: microbe, parasite or virus in culture. The class given is cell-based. To be noted: Rhizoctonia solani, read-out: RHIZSO in vitro Growth Inhibition.
Test [3] relates to Mycosphaerella graminicola (Septoria tritici—SEPTTR). Put plainly: In vitro fungal growth inhibition, Mycosphaerella graminicola (SEPTTR). Type of test: cell-based. To be noted: Zymoseptoria tritici, read-out: SEPTTR in vitro Growth Inhibition.
Test [4] has as its system Stagonospora nodorum (Leptosphaeria nodorum—LEPTNO). Put plainly: In vitro fungal growth inhibition, Stagonospora nodorum (LEPTNO). The class given is cell-based. To be noted: Leptosphaeria, read-out: LEPTNO in vitro Growth Inhibition.
Test [5] concerns Ustilago maydis (USTIMA). Put plainly: microbe, parasite or virus in culture. The class given is cell-based. To be noted: Mycosarcoma maydis, read-out: USTIMA in vitro Growth Inhibition.
Test [6] deals with Phytophthora infestans (PHYTIN). The experiment in a line: microbe, parasite or virus in culture. The class given is cell-based. As to conditions: Phytophthora infestans, read-out: PHYTIN in vitro Growth Inhibition.
In test [7] the test system is Phytophthora infestans—PHYTIN. The experiment in a line: whole plant or invertebrate. The class given is in vivo. To be noted: Phytophthora, in Solanum lycopersicum, 24 h, read-out: PHYTIN in vivo 1 Day Protectant.
Test [8] concerns Puccinia recondita—PUCCRT. Put plainly: Brown Rust of Wheat, in vivo whole plant, 24 Hour Protectant. To be noted: for pest or weed control at 100 ppm: Puccinia, control of fungal infection vs untreated plants, read-out: PUCCRT in vivo 1 Day Protectant; for PUCCRT in vivo 1 Day Protectant: % control of fungal infection vs untreated plants.
The subject of test [9] is Erysiphe graminis—ERYSGT. The experiment in a line: Powdery Mildew of Wheat, in vivo whole plant, 24 Hour Protectant. As to conditions: for pest or weed control at 100 ppm: Erysiphe, read-out: ERYSGT in vivo 1 Day Protectant.
Test [10] concerns Septoria tritici—SEPTTR. The experiment in a line: Leaf Blotch of Wheat, in vivo whole plant, 24 Hour Protectant. As to conditions: for pest or weed control at 100 ppm: Zymoseptoria tritici, 24 h, read-out: SEPTTR in vivo 1 Day Protectant.
Test [11] concerns Leptosphaeria nodorum—LEPTNO. The experiment in a line: Glume Blotch of Wheat, in vivo whole plant, 24 Hour Protectant. As to conditions: for pest or weed control at 100 ppm: Leptosphaeria, read-out: LEPTNO in vivo 1 Day Protectant.
Setting [12] is: 100 ppm spray, 24 hour protectant, wheat.
The mark [13] stands for this setting: 100 ppm spray, 24 hour protectant, wheat, control of fungal infection vs untreated plants.
[14] abbreviates: wheat plants sprayed at 100 ppm, inoculated after 24 hours, control of fungal infection vs untreated plants.
[15] abbreviates: 100 ppm spray, wheat, 24 hour protectant.
Setting [16] is: 100 ppm spray, wheat, 24 hour protectant, % control of fungal infection vs untreated plants.
[17] abbreviates: 100 ppm spray, wheat, 24 hour protectant, control of fungal infection vs untreated plants.

Turning to `COc1ccnc(C(=O)N[C@@H]2CC3CC2C2C(=O)N(CC(C)C)C(=O)C32)c1O` (stereo partly shown) [Compound 303], the inhibition at 25 ppm in [1], in test [2], in test [3] (25 ppm in growth medium), in [4] (25 ppm in growth medium), in test [5] and in test [6] was < 80% in each case. The pest or weed control at 100 ppm in test [7] is 25 to 74%; in test [8] (setting [12]), < 25%; in test [9] (setting [13]) it was < 25%; in test [10] (setting [13]), 25 to 74%; in test [11] (setting [13]) it was 25 to 74%.
`COc1ccnc(C(=O)N[C@H]2C[C@@H](C(F)(F)F)C[C@@H](C(F)(F)F)C2)c1OC(C)=O` [Compound 576]: the inhibition at 25 ppm in [1], in test [2], in test [3] (25 ppm in the growth medium), in [4] (25 ppm in the growth medium), in [5] and in test [6] was < 80% in each case. For the same molecule, the pest or weed control at 100 ppm in test [7] is < 25%; in test [8] (wheat plants sprayed at 100 ppm, inoculated after 24 hours), 25 to 74%; in test [9] (setting [14]), < 25%; in test [10] (setting [14]), 25 to 74%; in test [11] (setting [14]), 25 to 74%.
As for `COc1ccnc(C(=O)N[C@H]2COC(=O)[C@H](Cc3ccccc3)[C@@H](OC(=O)C(C)C)[C@H](C)OC2=O)c1OC(=O)C1CCCC1` [Compound 611], the inhibition at 25 ppm in test [1], in test [2], in test [3] (25 ppm in growth medium), in test [4] (25 ppm in growth medium), in test [5] and in test [6] was < 80% each time. Moreover, the pest or weed control at 100 ppm in test [7] and in [9] (setting [16]) was < 25% in each case. Moreover, the “PUCCRT in vivo 1 Day Protectant” value in test [8] (setting [15]) is on record as “+ +”. In addition, the “SEPTTR in vivo 1 Day Protectant” value in test [10] (setting [16]) is reported as “+ +”. In [11] (setting [16]), the “LEPTNO in vivo 1 Day Protectant” value is “+ +”.
With `COc1ccnc(C(=O)N[C@@H]2C[C@@H](O[Si](C)(C)C(C)(C)C)O[C@@H](C)[C@@H]2OCc2ccccc2)c1O` [Compound 327], the inhibition at 25 ppm in [1], in [2], in test [3], in test [4], in test [5] and in test [6] was < 80% each time. Further, the pest or weed control at 100 ppm is 25 to 74% in [7], < 25% in [8] (setting [15]), < 25% in [9] (setting [17]) and 25 to 74% in test [11] (setting [17]). For the same molecule, in test [10] (setting [17]), the “SEPTTR in vivo 1 Day Protectant” value is reported as “+ +”.
With `COCCCc1ccc2c(c1)OC(C)C(NC(=O)c1nccc(OC)c1O)C2=O` (stereo not shown) [Compound 322], the inhibition (commonly the relative decrease from the control value, in per cent) at 25 ppm was < 80% in [1]; > 80% in test [2]; < 80% in test [3] (25 ppm in growth medium); > 80% in [4] (25 ppm in growth medium); < 80% in test [5]; < 80% in [6]. In addition, the pest or weed control at 100 ppm is < 25% in [7]; 25 to 74% in test [8] (setting [12]); 25 to 74% in test [9] (setting [13]); 25 to 74% in test [10] (setting [13]); 25 to 74% in [11] (setting [13]).
Take `COc1ccnc(C(=O)N[C@@H]2OC[C@@H](OC(C)=O)[C@H](OC(C)=O)[C@H]2OC(C)=O)c1O` [Compound 330]: the inhibition at 25 ppm in test [1], in [2], in test [3] (25 ppm in growth medium), in test [4] (25 ppm in growth medium), in test [5] and in test [6] was < 80% throughout. Further, the pest or weed control at 100 ppm in test [7], in test [8] (setting [15]), in test [9] (setting [17]), in [10] (setting [17]) and in [11] (setting [17]) was < 25% throughout.
As for `COc1ccnc(C(=O)N[C@H]2COC(=O)[C@H](Cc3ccccc3)[C@@H](OC(=O)NC(C)C)[C@H](C)OC2=O)c1O` [Compound 399], the inhibition at 25 ppm in [1], in test [2], in [3] (25 ppm in growth medium), in [4] (25 ppm in growth medium), in test [5] and in test [6] was < 80% throughout. The pest or weed control at 100 ppm in [7] was < 25%; in test [8] (setting [15]), 25 to 74%; in test [9] (setting [17]), < 25%; in test [10] (setting [17]), 25 to 74%. Further, the “LEPTNO in vivo 1 Day Protectant” value in test [11] (setting [17]) is reported as “+ +”.
On to `COc1ccnc(C(=O)Nc2cccc(Oc3ccccc3C)c2)c1O` [Compound 412], for which the inhibition at 25 ppm in test [1] was > 80%; in test [2], < 80%; in test [3] (25 ppm in growth medium), > 80%; in test [4] (25 ppm in growth medium) it was > 80%; in test [5], < 80%; in [6], < 80%. Also, the pest or weed control at 100 ppm is < 25% in test [7]; 25 to 74% in test [8] (setting [15]); < 25% in [9] (setting [17]); < 25% in [10] (setting [17]); < 25% in [11] (setting [17]).
On to `CC(NC(=O)c1ncccc1O)c1ccc(Cl)cc1` (stereo not shown) [Compound 230], for which the inhibition at 25 ppm in test [1] was > 80%; in [2], < 80%; in test [3] (25 ppm in growth medium), > 80%; in [4] (25 ppm in growth medium), > 80%; in test [5], < 80%; in test [6], > 80%. Moreover, the pest or weed control at 100 ppm in test [7] is < 25%; in [8] (setting [12]) it was < 25%; in test [9] (setting [13]) it was < 25%; in test [10] (setting [13]), 25 to 74%; in [11] (setting [13]), 25 to 74%.
As to `COc1ccnc(C(=O)Nc2ccc(C(=O)c3ccc(C(F)(F)F)cc3)cc2)c1O` [Compound 406], the inhibition at 25 ppm in test [1], in test [2], in [3] (25 ppm in growth medium), in test [4] (25 ppm in growth medium), in test [5] and in test [6] was < 80% throughout. In addition, the pest or weed control at 100 ppm is < 25% in test [7]; < 25% in [8] (setting [15]); 25 to 74% in test [9] (setting [17]); 25 to 74% in test [10] (setting [17]); 25 to 74% in test [11] (setting [17]).
In the case of `CCOC(=O)Oc1c(OC)ccnc1C(=O)N[C@H]1COC(=O)[C@H](Cc2ccccc2)[C@@H](OC(=O)C(C)C)[C@H](C)OC1=O` [Compound 679], the inhibition at 25 ppm in test [1] was > 80%; in test [2], > 80%; in test [3] (25 ppm in growth medium) it was < 80%; in [4] (25 ppm in growth medium), < 80%; in test [5] it was < 80%; in test [6], < 80%. The pest or weed control at 100 ppm in test [7] was < 25%. Moreover, the “PUCCRT in vivo 1 Day Protectant” value in test [8] (setting [15]) was “+ +”. In addition, the “ERYSGT in vivo 1 Day Protectant” value in [9] (setting [16]) is on record as “+ +”. For the same molecule, in test [10] (setting [16]), the “SEPTTR in vivo 1 Day Protectant” value is recorded as “+ +”. Further, in test [11] (setting [16]), the “LEPTNO in vivo 1 Day Protectant” value is listed as “+ +”.
